The results in this text go back to patent US20250353855A1, “HETEROCYCLIC AND HETEROARYL COMPOUNDS FOR TREATING HUNTINGTON'S DISEASE” (PTC THERAPEUTICS, INC., priority 2022, published 2025).

As usually defined, the IC50 is the point on the concentration scale where inhibition reaches its midpoint.

One test concerns Endogenous Huntingtin Protein. In words: Endogenous Huntingtin Protein Assay (ELISA-based MSD electrochemiluminescence). The format is cell-based. Conditions: MSD plates coated with MW1 (expanded polyglutamine) or MAB2166 capture antibody; lysates. In short, it runs like this:
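Electrochemiluminescence sandwich ELISA for endogenous huntingtin: capture with MW1 (expanded polyglutamine) or MAB2166 antibody at 1 μg/mL, samples incubated overnight at 4° C. Detection with rabbit monoclonal #5656S then goat anti-rabbit SULFO-TAG antibody (each 0.25 μg/mL, 1 h room temperature), read on MSD imager.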
(In general: An ELISA detects its analyte on a solid surface through an enzyme-linked reagent.)
As to `CSc1nc2cc(O)c(-c3cc4c(nn3)N([C@H]3CC(C)(C)NC(C)(C)[C@H]3F)CC4)cc2s1` [Cpd 98, 6-{7-[(3S,4S)-3-fluoro-2,2,6,6-tetramethylpiperidin-4-yl]-6,7-dihydro-5H-pyrrolo[2,3-c]pyridazin-3-yl}-2-(methylsulfanyl)-1,3-benzothiazol-5-ol], the half-maximal inhibitory concentration (IC50) is < 100 nM.

Still in this test, the particulars now being: MSD plates coated with MW1 (expanded polyglutamine) or MAB2166 capture antibody; lysates; read-out: IC50.
For `Cc1ncc2cc(O)c(-c3cc4c(nn3)N([C@H]3CC(C)(C)NC(C)(C)[C@H]3F)CC4)cc2n1` [Cpd 87, 7-{7-[(3S,4S)-3-fluoro-2,2,6,6-tetramethylpiperidin-4-yl]-6,7-dihydro-5H-pyrrolo[2,3-c]pyridazin-3-yl}-2-methylquinazolin-6-ol], the IC50 is < 100 nM.
Same read-out and setting: next, `Cn1nc2cc(O)c(-c3cc4c(nn3)N([C@H]3CC(C)(C)NC(C)(C)[C@H]3F)CC4)cc2n1` [Cpd 88, 6-{7-[(3S,4S)-3-fluoro-2,2,6,6-tetramethylpiperidin-4-yl]-6,7-dihydro-5H-pyrrolo[2,3-c]pyridazin-3-yl}-2-methyl-2H-benzotriazol-5-ol]: < 100 nM.
Turning to `Cn1cc2cc(O)c(-c3cc4c(nn3)N([C@H]3CC(C)(C)NC(C)(C)[C@H]3F)CC4)cc2n1` [Cpd 89, 6-{7-[(3S,4S)-3-fluoro-2,2,6,6-tetramethylpiperidin-4-yl]-6,7-dihydro-5H-pyrrolo[2,3-c]pyridazin-3-yl}-2-methyl-2H-indazol-5-ol], the IC50 was < 100 nM.
For the molecule `CC1(C)C[C@H](N2CCc3cc(-c4cc5ncc(F)cc5cc4O)nnc32)[C@H](F)C(C)(C)N1` [Cpd 90, 3-fluoro-7-{7-[(3S,4S)-3-fluoro-2,2,6,6-tetramethylpiperidin-4-yl]-6,7-dihydro-5H-pyrrolo[2,3-c]pyridazin-3-yl}quinolin-6-ol], the IC50 is < 100 nM.
Same read-out and setting: to `Cn1nnc2cc(O)c(-c3cc4c(nn3)N([C@H]3CC(C)(C)NC(C)(C)[C@H]3F)CC4)cc21` [Cpd 92, 6-{7-[(3S,4S)-3-fluoro-2,2,6,6-tetramethylpiperidin-4-yl]-6,7-dihydro-5H-pyrrolo[2,3-c]pyridazin-3-yl}-1-methyl-1H-benzotriazol-5-ol] belongs < 100 nM; to `CC1(C)C[C@H](N2CCc3cc(-c4cc5cc(F)cnc5cc4O)nnc32)[C@H](F)C(C)(C)N1` [Cpd 93, 3-fluoro-6-{7-[(3S,4S)-3-fluoro-2,2,6,6-tetramethylpiperidin-4-yl]-6,7-dihydro-5H-pyrrolo[2,3-c]pyridazin-3-yl}quinolin-7-ol], < 100 nM.
Same read-out and setting: next, `CC1(C)C[C@H](n2ccc3cc(-c4cc5cc(F)cnc5cc4O)nnc32)[C@H](F)C(C)(C)N1` [Cpd 94, 3-fluoro-6-{7-[(3S,4S)-3-fluoro-2,2,6,6-tetramethylpiperidin-4-yl]-7H-pyrrolo[2,3-c]pyridazin-3-yl}quinolin-7-ol]: < 100 nM; `Cc1nc2cc(O)c(-c3cc4c(nn3)N([C@@H]3CC(C)(C)NC5(CC5)C3)CC4)cc2o1` [Cpd 95, 6-{7-[(7R)-5,5-dimethyl-4-azaspiro[2.5]octan-7-yl]-6,7-dihydro-5H-pyrrolo[2,3-c]pyridazin-3-yl}-2-methyl-1,3-benzoxazol-5-ol]: < 100 nM.
As for `COc1nc2cc(O)c(-c3cc4ccn([C@H]5CC(C)(C)NC(C)(C)[C@H]5F)c4nn3)cc2s1` [Cpd 96, 6-{7-[(3S,4S)-3-fluoro-2,2,6,6-tetramethylpiperidin-4-yl]-7H-pyrrolo[2,3-c]pyridazin-3-yl}-2-methoxy-1,3-benzothiazol-5-ol], the IC50 is < 100 nM.
On to `COc1nc2cc(O)c(-c3cc4c(nn3)N([C@H]3CC(C)(C)NC(C)(C)[C@H]3F)CC4)cc2s1` [Cpd 97, 6-{7-[(3S,4S)-3-fluoro-2,2,6,6-tetramethylpiperidin-4-yl]-6,7-dihydro-5H-pyrrolo[2,3-c]pyridazin-3-yl}-2-methoxy-1,3-benzothiazol-5-ol], for which the IC50 was < 100 nM.
